Measurements reported in patent US20020155172A1, “Methods and compounds for decreasing cell toxicity or death” (priority 2000, published 2002).

Assays:
[1] = test system: polyglutamine aggregates of HA-Q79-GFP expressing cells; test: Filter assay (0.2 μm acetate filter); assay type: cell-based
Method: FIG. 6D is a scanned image of a filter showing the effect of Congo red on pre-formed oligomers as assessed by the filter assay described herein. Cells were treated with PBS or 100 μM of Congo red 6 hours after transfection with Q79-GFP. Lysates from these cells were obtained 42 hours later, and passed through a 0.2 micron pore filter. In addition, Q79 aggregates were treated with Congo red after they were recovered from cells to test for disruption of pre-formed aggregates.
FIG. 7C is an image of an immunoblot of lysates from Q79 expressing cells that were treated with PBS or Congo red during or after transfection, as indicated in the Figure and passed through a 0.2 micron filter. Endogenous caspase-8 and the adapter protein FADD were trapped in the filter in cell lysates containing oligomerized polyglutamine repeats, and probed using a caspase-8 or FADD antibody.
To further confirm the ability of Congo red to inhibit the formation of polyglutamine aggregates, as well as to disrupt preformed aggregates, we analyzed the state of polyglutamine aggregation by examining equal aliquots of total lysates from Congo-red- or vehicle-treated HA-Q79-GFP expressing cells, or the lysates that were treated with Congo red or vehicle after cell lysis. The cell lysates were passed through a 0.2 μm acetate filter and then visualized by immunostaining with anti-HA antibody (FIG. 6D).

[2] = test system: Q79-expressing HeLa cells; test: Turnover of S35-labeled expanded polyglutamine repeats; assay type: cell-based
Method: FIG. 8A is a set of scanned autoradiograms showing the effect of Congo red on expanded polyglutamine repeat turn-over, as assessed by relative levels of S^35 labeled polyQ (Q79) protein, with or without Congo red treatment. Q79-HA expressing cells were metabolically labeled with S^35 methionine for one hour. Cells were harvested one and 24 hours after labeling. PolyQ protein was immunoprecipitated with an anti-HA antibody, and the proteins were separated by electrophoresis before blotting.
We next determined whether inhibition and disruption of Q79 oligomers changed its turnover kinetics by measuring pulse-S^35-labeled polyglutamine levels in the presence or absence of Congo red.

R62 mice [3] = test: Dyskinesia of the hindlimbs, gait and stride length (ink test); assay type: in vivo
Excerpt: FIG. 10D is a set of scanned images of the effect of Congo red or PBS (vehicle) on motor coordination, as assessed by the “ink” test in HD transgenic mice three weeks after Congo red or vehicle treatment. The “ink” test was used to determine the changes in stride length and the overlap of steps characteristic of movement disorders using red and green food coloring to mark the front and back paws, respectively. Changes in stride length of individual mice from one set of paws (brackets) and the differences in the step overlapping patterns (open arrows) three weeks after vehicle or Congo red treatment were assayed.
FIG. 10E is a table of the quantification of changes in stride length in HD transgenic mice treated with either Congo red or PBS (vehicle) (#, n=5 in each cohort), assessed as described in FIG. 10D.
(§1) In addition, the ability of Congo red to inhibit the formation as well as to disrupt preformed polyglutamine oligomers allowed us to examine the role of polyglutamine aggregates in neuronal dysfunction and degeneration characteristic of polyglutamine expansion diseases. In these studies, we used the animal model of Huntington's disease (R62), which expresses the truncated form of huntingtin with 139 CAG repeats Mangiarini et al. (supra). We took advantage of our finding that in addition to inhibiting polyglutamine oligomerization, Congo red also disrupts pre-formed oligomers, thus allowing assessment of the impact of Congo red on disease progression after formation of polyglutamine aggregates and the onset of symptoms. R62 transgenic mice and CBAxC57B1/6 F1 wild type littermates were obtained from Jackson Laboratories (Bar Harbor, Me.) at the age of five weeks. […]
(§2) The initial abnormal neurological signs of R62 mice include dyskinesia of the hindlimbs when mice were suspended by the tail, and irregular gait. […] The effect of Congo red on motor performance in R62 mice was also assessed by rotarod studies. […]

R62 mice [4] = test: Rotarod motor performance, second study; assay type: in vivo; settings: 10 rpm, maximum 210 seconds
Excerpt: FIG. 10F is a graph of the effect of PBS (vehicle; delivered intraperitoneally (IP)) or Congo red, infused intraperitoneally (IP), by intracerebroventricular cannula (ICV) implanted into the predetermined coordinates on the left ventricle, or by both routes, on motor performance, as assessed by latency to fall measurements using a rotorod.
as §1, with “symptoms.” for “symptoms. R62 transgenic mice and CBAxC57B1/6 F1 wild type littermates were obtained from Jackson Laboratories (Bar Harbor, Me.) at the age of five weeks.”
as §2

R62 mice [5] = test: EM48 immunostaining of polyglutamine aggregates in brain; assay type: in vivo
Method: To test whether Congo red can disrupt and inhibit the formation of expanded polyglutamine oligomers in vivo, we analyzed the brain samples from control- and Congo red-treated […] mice. Mice were anesthetized with isoflurane, perfused intracardially with 4% paraformaldehyde in phosphate buffered saline (pH 7.4). The brain was removed and washed several times in PBS before overnight incubation in PBS containing 30% sucrose, and was then embedded in OTC (Sigma, MO.). Cryostat frozen sections were washed in PBS, and non-specific binding was blocked with 5% normal goat serum in PBS containing 0.1% Triton. Sections were stained using an anti-EM48 antibody at a 1:1000 dilution, and immunoreactivity was detected using the ABC kit, as described by the manufacturer (Vector, Co.). Some slides were lightly counter stained with hematoxylin.

[6] = ink test three weeks after treatment

Nc1c(/N=N/c2ccc(-c3ccc(/N=N/c4cc(S(=O)(=O)O)c5ccccc5c4N)cc3)cc2)cc(S(=O)(=O)O)c2ccccc12 [Congo red, diphenyldiazo-bis-alpha-napthylaminesulfonate]
polyglutamine aggregates retained by 0.2 μm filter, lysates treated ([1]; cell lysates treated with Congo red after cell lysis): undetectable
polyglutamine aggregates retained by 0.2 μm filter, cells treated ([1]; cells treated with Congo red (100 μM) 6 hours after transfection): undetectable
FADD and caspase-8 in a complex retained by 0.2 μm filter ([1]; lysates of Q79 expressing cells): not in Congo red-treated lysates
steady state levels of HA-Q79 ([2]; Western blot, compared to negative controls): only slightly reduced steady state levels
level of S35-labeled polyglutamine ([2]; after chase for 24 hours, versus control cells): more than two fold lower
expression (synthesis) of expanded polyglutamine ([2]; one hour after chase): did not prevent the expression of expanded polyglutamine
turnover rate of S35-labeled Q79 ([2]; versus control cells): at least a two fold higher turnover rate
dyskinesia of the hindlimbs (R62 mice [3]): significantly inhibited the dyskinesia of the hindlimbs
gait (R62 mice [3]; [6]): preserved the normal gait
stride length (R62 mice [3]; [6]): preserved the normal gait (FIG. 10D) and stride length
motor performance on rotarod (R62 mice [4]): preserved
EM48 positive polyglutamine aggregates in the cortex and hippocampus (R62 mice [5]; R62 mice): reduction of EM48 positive polyglutamine aggregates
expanded polyglutamine repeats in the basal ganglia (EM48) (R62 mice [5]; R62 mice 12.5 weeks old): Extensive clearance of expanded polyglutamine repeats
